Experiments:
Experiment in all cases: NanoBRET target engagement (tracer displacement) in intact HEK293T cells
Assay type in all cases: cell-based
CLK1 = target: T1, CLK1 (Homo sapiens, UniProt P49759)
T1 construct: Full-length, terminal NanoLuc fusion

DYRK1B = target: T2, DYRK1B (Homo sapiens, UniProt Q9Y463)
T2 construct: Full-length, terminal NanoLuc fusion

DYRK2 = target: T3, DYRK2 (Homo sapiens, UniProt Q92630)
T3 construct: Full-length, terminal NanoLuc fusion
T3 sequence (Q92630 1-601): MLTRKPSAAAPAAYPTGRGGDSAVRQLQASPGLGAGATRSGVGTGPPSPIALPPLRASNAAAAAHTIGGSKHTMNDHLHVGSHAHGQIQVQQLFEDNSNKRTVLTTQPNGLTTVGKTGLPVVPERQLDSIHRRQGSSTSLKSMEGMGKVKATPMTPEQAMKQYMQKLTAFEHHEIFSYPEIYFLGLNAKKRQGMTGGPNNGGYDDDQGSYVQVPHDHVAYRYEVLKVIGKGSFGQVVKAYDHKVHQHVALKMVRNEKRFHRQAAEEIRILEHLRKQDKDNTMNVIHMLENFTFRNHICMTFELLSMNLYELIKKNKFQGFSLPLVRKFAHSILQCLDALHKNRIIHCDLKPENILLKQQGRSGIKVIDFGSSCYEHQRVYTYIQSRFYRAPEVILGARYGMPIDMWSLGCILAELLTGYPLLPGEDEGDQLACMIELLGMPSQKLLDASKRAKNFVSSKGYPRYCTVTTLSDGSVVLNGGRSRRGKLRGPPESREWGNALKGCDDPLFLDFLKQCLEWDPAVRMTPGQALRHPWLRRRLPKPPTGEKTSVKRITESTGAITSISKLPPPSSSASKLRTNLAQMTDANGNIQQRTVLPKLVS

CLK2 = target: T4, CLK2 (Homo sapiens, UniProt P49760)
T4 construct: Full-length, terminal NanoLuc fusion
T4 sequence (P49760 whole entry, the tested form may be a part): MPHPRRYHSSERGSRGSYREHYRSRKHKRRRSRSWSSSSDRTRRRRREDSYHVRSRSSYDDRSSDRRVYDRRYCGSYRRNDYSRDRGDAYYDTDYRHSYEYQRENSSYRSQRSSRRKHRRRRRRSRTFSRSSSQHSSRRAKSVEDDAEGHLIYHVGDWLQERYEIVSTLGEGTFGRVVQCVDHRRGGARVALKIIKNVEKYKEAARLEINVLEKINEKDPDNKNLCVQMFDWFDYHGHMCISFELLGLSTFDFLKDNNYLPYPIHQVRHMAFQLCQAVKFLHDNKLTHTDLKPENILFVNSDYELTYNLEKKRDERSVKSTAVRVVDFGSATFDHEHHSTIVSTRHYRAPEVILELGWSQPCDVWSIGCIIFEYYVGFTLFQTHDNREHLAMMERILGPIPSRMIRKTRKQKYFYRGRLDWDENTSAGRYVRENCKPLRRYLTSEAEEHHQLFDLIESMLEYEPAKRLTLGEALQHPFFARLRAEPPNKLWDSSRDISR

CLK4 = target: T5, CLK4 (Homo sapiens, UniProt Q9HAZ1)
T5 construct: Full-length, terminal NanoLuc fusion
T5 sequence (Q9HAZ1 whole entry, the tested form may be a part): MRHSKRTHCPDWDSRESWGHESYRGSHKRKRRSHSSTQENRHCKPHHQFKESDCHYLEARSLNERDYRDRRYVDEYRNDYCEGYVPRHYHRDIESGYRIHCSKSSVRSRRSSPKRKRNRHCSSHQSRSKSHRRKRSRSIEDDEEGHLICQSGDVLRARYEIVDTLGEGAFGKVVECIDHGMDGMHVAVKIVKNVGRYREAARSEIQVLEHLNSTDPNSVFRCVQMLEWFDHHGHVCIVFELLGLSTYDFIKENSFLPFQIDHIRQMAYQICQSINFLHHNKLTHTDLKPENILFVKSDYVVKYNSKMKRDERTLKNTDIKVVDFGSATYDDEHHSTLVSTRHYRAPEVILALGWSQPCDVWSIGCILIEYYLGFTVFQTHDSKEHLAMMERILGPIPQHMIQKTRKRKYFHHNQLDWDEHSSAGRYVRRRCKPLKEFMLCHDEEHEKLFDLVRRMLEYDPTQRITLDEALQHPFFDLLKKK

DYRK1A = target: T6, DYRK1A (Homo sapiens, UniProt Q13627)
T6 construct: Full-length, terminal NanoLuc fusion

T2 sequence (Q9Y463 whole entry, the tested form may be a part): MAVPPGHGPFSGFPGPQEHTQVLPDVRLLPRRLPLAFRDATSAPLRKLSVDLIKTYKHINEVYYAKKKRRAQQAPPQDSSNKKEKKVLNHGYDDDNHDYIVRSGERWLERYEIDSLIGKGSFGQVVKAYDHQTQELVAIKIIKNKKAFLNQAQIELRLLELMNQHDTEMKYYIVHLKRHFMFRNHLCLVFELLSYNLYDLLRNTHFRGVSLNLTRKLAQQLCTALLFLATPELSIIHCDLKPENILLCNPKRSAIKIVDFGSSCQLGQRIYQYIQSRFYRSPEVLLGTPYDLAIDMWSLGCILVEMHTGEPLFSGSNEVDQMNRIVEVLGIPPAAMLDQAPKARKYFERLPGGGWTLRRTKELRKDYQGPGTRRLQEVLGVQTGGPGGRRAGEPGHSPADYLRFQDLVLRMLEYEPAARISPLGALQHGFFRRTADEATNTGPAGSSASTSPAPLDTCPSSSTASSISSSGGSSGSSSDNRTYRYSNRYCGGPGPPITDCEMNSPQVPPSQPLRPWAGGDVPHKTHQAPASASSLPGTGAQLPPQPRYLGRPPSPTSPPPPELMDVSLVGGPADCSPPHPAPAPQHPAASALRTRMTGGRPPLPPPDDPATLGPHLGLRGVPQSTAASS
T1 sequence (P49759 whole entry, the tested form may be a part): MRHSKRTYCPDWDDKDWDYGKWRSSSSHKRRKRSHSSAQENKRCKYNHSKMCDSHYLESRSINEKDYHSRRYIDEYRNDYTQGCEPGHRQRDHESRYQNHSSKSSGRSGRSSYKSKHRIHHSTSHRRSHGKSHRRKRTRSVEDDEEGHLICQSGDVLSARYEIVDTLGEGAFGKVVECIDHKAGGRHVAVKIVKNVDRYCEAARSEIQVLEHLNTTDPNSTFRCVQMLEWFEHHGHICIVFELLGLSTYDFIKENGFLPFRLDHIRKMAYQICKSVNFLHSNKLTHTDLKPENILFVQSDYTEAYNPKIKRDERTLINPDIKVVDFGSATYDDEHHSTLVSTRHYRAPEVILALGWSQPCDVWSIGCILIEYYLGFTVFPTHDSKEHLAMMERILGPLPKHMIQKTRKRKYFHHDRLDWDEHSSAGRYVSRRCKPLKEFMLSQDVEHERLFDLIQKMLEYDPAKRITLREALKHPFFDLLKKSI

`Cc1nccc(-c2cn(Cc3ccccc3)c3cnccc23)n1` [AZ-DYRK1B-33] gave an EC50 (CLK1) of 299 nM, an EC50 (DYRK1B) of 537 nM and an EC50 (DYRK2) of 3400 nM. For the same compound, the EC50 (CLK2) was 5000 nM, the EC50 (CLK4) was 119 nM and the EC50 (DYRK1A) was 3800 nM.

From publication PMC11846820, “Inhibition of DYRK1B BY C81 impedes inflammatory processes in leukocytes by reducing STAT3 activity” (Cellular and Molecular Life Sciences: CMLS, 2025)
